This note sets out measurements from patent US9713651B2, “Compositions, methods, and systems for the synthesis and use of imaging agents” (Lantheus Medical Imaging, Inc., priority 2012, dated 2017).

The data set is described as follows: Tissue distribution of 18F imaging agents in rats. The format is in vivo, Male Sprague Dawley rats. The following applies: rat, iv tail vein ~15 μCi, ± SEM; for Blood, imaging agent distribution at 15 min / Brain, imaging agent distribution at 15 min / Femur, imaging agent distribution at 15 min / Heart, imaging agent distribution at 15 min / Kidney, imaging agent distribution at 15 min / Liver, imaging agent distribution at 15 min / Lung, imaging agent distribution at 15 min / Muscle, imaging agent distribution at 15 min / Pancreas, imaging agent distribution at 15 min / Spleen, imaging agent distribution at 15 min: 15 min post injection; for Blood, imaging agent distribution at 60 min / Brain, imaging agent distribution at 60 min / Femur, imaging agent distribution at 60 min / Heart, imaging agent distribution at 60 min / Kidney, imaging agent distribution at 60 min / Liver, imaging agent distribution at 60 min / Lung, imaging agent distribution at 60 min / Muscle, imaging agent distribution at 60 min / Pancreas, imaging agent distribution at 60 min / Spleen, imaging agent distribution at 60 min: 60 min post injection. The protocol:
Anesthetized (sodium pentobarbital at 50 mg/kg, ip or isoflurane gas inhalation) Male Sprague Dawley rats (250-350 g) received an iv injection of the imaging agent (˜15 μCi) via the tail vein. At 15 or 60 min post injection, the animals were euthanized and the required tissue samples harvested. All samples were then weighed and counted for radioactivity (Wallac Wizard 1480 or Packard Cobra II Autogamma); regional tissue uptake of the imaging agent was thus expressed as a percentage of the total injected dose per gram of tissue (% ID/g).
The generic structure depicted below highlights specific structural features evaluated during distribution experiments.

Regarding `CC(C)(C)n1ncc(OCc2cccc(OCCF)c2)c(Cl)c1=O` [Example 67F], the “Blood, imaging agent distribution at 15 min” value (from here on “Blood … at 15 min”) is 0.32 ± 0.05 % ID/g; the “Brain, imaging agent distribution at 15 min” value (“Brain … at 15 min” for short) turned out to be 0.50 ± 0.04 % ID/g; the “Femur, imaging agent distribution at 15 min” value (“Femur … at 15 min” for short) was determined as 0.44 ± 0.04 % ID/g; the “Heart, imaging agent distribution at 15 min” value (“Heart … at 15 min” for short) is given as 1.92 ± 0.15 % ID/g. For the same compound, the “Kidney, imaging agent distribution at 15 min” value (“Kidney … at 15 min” for short) is on record as 1.04 ± 0.10 % ID/g; the “Liver, imaging agent distribution at 15 min” value (from here on “Liver … at 15 min”) was found to be 0.40 ± 0.04 % ID/g; the “Lung, imaging agent distribution at 15 min” value (“Lung … at 15 min” for short) stood at 0.41 ± 0.03 % ID/g; the “Muscle, imaging agent distribution at 15 min” value (“Muscle … at 15 min” below) is given as 0.60 ± 0.06 % ID/g. Moreover, the “Pancreas, imaging agent distribution at 15 min” value (“Pancreas … at 15 min” for short) stood at 0.52 ± 0.04 % ID/g; the “Spleen, imaging agent distribution at 15 min” value (“Spleen … at 15 min” below) was determined as 0.28 ± 0.01 % ID/g; the “Blood, imaging agent distribution at 60 min” value (“Blood … at 60 min” for short) is 0.48 ± 0.01 % ID/g; the “Brain, imaging agent distribution at 60 min” value (“Brain … at 60 min” for short) stood at 0.38 ± 0.01 % ID/g. Also, the “Femur, imaging agent distribution at 60 min” value (“Femur … at 60 min” for short) is given as 0.57 ± 0.04 % ID/g; the “Heart, imaging agent distribution at 60 min” value (“Heart … at 60 min” for short) is recorded as 0.87 ± 0.02 % ID/g; the “Kidney, imaging agent distribution at 60 min” value (“Kidney … at 60 min” for short) is 0.60 ± 0.03 % ID/g; the “Liver, imaging agent distribution at 60 min” value (from here on “Liver … at 60 min”) came out at 0.39 ± 0.04 % ID/g. Further, the “Lung, imaging agent distribution at 60 min” value (“Lung … at 60 min” for short) amounted to 0.44 ± 0.03 % ID/g; the “Muscle, imaging agent distribution at 60 min” value (“Muscle … at 60 min” below) is on record as 0.43 ± 0.07 % ID/g; the “Pancreas, imaging agent distribution at 60 min” value (“Pancreas … at 60 min” for short) worked out at 0.48 ± 0.01 % ID/g; the “Spleen, imaging agent distribution at 60 min” value (“Spleen … at 60 min” below) stood at 0.31 ± 0.01 % ID/g.
With `CC(OCCF)c1ccc(COc2cnn(C(C)(C)C)c(=O)c2Cl)cc1` (stereo not drawn) [Example 67G], the “Blood … at 15 min” value worked out at 0.50 ± 0.18 % ID/g; the “Brain … at 15 min” value is recorded as 0.59 ± 0.03 % ID/g; the “Femur … at 15 min” value was 0.40 ± 0.05 % ID/g; the “Heart … at 15 min” value is reported as 2.19 ± 0.36 % ID/g. In addition, the “Kidney … at 15 min” value is recorded as 0.88 ± 0.05 % ID/g; the “Liver … at 15 min” value was 0.33 ± 0.10 % ID/g; the “Lung … at 15 min” value turned out to be 0.46 ± 0.12 % ID/g; the “Muscle … at 15 min” value was found to be 0.35 ± 0.04 % ID/g. The “Pancreas … at 15 min” value worked out at 0.41 ± 0.03 % ID/g; the “Spleen … at 15 min” value was 0.32 ± 0.11 % ID/g; the “Blood … at 60 min” value amounted to 0.47 ± 0.04 % ID/g; the “Brain … at 60 min” value is listed as 0.39 ± 0.05 % ID/g. The “Femur … at 60 min” value is recorded as 0.58 ± 0.06 % ID/g; the “Heart … at 60 min” value came out at 0.98 ± 0.16 % ID/g; the “Kidney … at 60 min” value is listed as 0.44 ± 0.02 % ID/g; the “Liver … at 60 min” value came to 0.32 ± 0.03 % ID/g. Moreover, the “Lung … at 60 min” value is 0.38 ± 0.03 % ID/g; the “Muscle … at 60 min” value turned out to be 0.33 ± 0.01 % ID/g; the “Pancreas … at 60 min” value came to 0.26 ± 0.01 % ID/g; the “Spleen … at 60 min” value is recorded as 0.28 ± 0.03 % ID/g.
For the compound `CC(C)n1ncc(OCc2ccc(COCCF)cc2)c(Cl)c1=O` [Example 67H], the “Blood … at 15 min” value is recorded as 0.45 ± 0.02 % ID/g; the “Brain … at 15 min” value turned out to be 0.43 ± 0.05 % ID/g; the “Femur … at 15 min” value is listed as 0.36 ± 0.04 % ID/g; the “Heart … at 15 min” value is given as 1.14 ± 0.09 % ID/g. Moreover, the “Kidney … at 15 min” value is given as 0.78 ± 0.01 % ID/g; the “Liver … at 15 min” value is 0.46 ± 0.01 % ID/g; the “Lung … at 15 min” value is on record as 0.41 ± 0.01 % ID/g; the “Muscle … at 15 min” value was 0.38 ± 0.02 % ID/g. Moreover, the “Pancreas … at 15 min” value came out at 0.44 ± 0.03 % ID/g; the “Spleen … at 15 min” value came out at 0.34 ± 0.03 % ID/g; the “Blood … at 60 min” value is 0.55 ± 0.02 % ID/g; the “Brain … at 60 min” value is reported as 0.43 ± 0.02 % ID/g. Further, the “Femur … at 60 min” value is given as 0.71 ± 0.06 % ID/g; the “Heart … at 60 min” value is on record as 0.55 ± 0.03 % ID/g; the “Kidney … at 60 min” value is listed as 0.49 ± 0.03 % ID/g; the “Liver … at 60 min” value was determined as 0.40 ± 0.02 % ID/g. The “Lung … at 60 min” value is 0.42 ± 0.01 % ID/g; the “Muscle … at 60 min” value is 0.31 ± 0.02 % ID/g; the “Pancreas … at 60 min” value was found to be 0.32 ± 0.02 % ID/g; the “Spleen … at 60 min” value was found to be 0.35 ± 0.02 % ID/g.
As to `Cc1c(OCc2ccc(COCCF)cc2)cnn(C(C)(C)C)c1=O` [Example 67I], the “Blood … at 15 min” value is given as 0.11 ± 0.02 % ID/g; the “Brain … at 15 min” value came to 0.49 ± 0.10 % ID/g; the “Femur … at 15 min” value was determined as 0.28 ± 0.04 % ID/g; the “Heart … at 15 min” value was determined as 2.34 ± 0.57 % ID/g. Besides, the “Kidney … at 15 min” value was determined as 1.13 ± 0.11 % ID/g; the “Liver … at 15 min” value came to 0.33 ± 0.02 % ID/g; the “Lung … at 15 min” value amounted to 0.19 ± 0.03 % ID/g; the “Muscle … at 15 min” value was determined as 0.28 ± 0.13 % ID/g. The “Pancreas … at 15 min” value is 0.43 ± 0.10 % ID/g; the “Spleen … at 15 min” value turned out to be 0.18 ± 0.01 % ID/g; the “Blood … at 60 min” value stood at 0.16 ± 0.01 % ID/g; the “Brain … at 60 min” value stood at 0.36 ± 0.01 % ID/g. The “Femur … at 60 min” value was found to be 0.31 ± 0.02 % ID/g; the “Heart … at 60 min” value is 1.78 ± 0.15 % ID/g; the “Kidney … at 60 min” value was determined as 0.48 ± 0.04 % ID/g; the “Liver … at 60 min” value came to 0.30 ± 0.01 % ID/g. In addition, the “Lung … at 60 min” value is reported as 0.19 ± 0.01 % ID/g; the “Muscle … at 60 min” value amounted to 0.35 ± 0.09 % ID/g; the “Pancreas … at 60 min” value worked out at 0.23 ± 0.02 % ID/g; the “Spleen … at 60 min” value worked out at 0.13 ± 0.00 % ID/g.
Take `CC(C)(C)n1ncc(OCc2ccc(C(=O)OCCF)cc2)c(Cl)c1=O` [Example 67J]: the “Blood … at 15 min” value was found to be 0.50 ± 0.02 % ID/g; the “Brain … at 15 min” value was 0.36 ± 0.01 % ID/g; the “Femur … at 15 min” value amounted to 0.28 ± 0.02 % ID/g; the “Heart … at 15 min” value was 1.19 ± 0.25 % ID/g. The “Kidney … at 15 min” value is reported as 0.39 ± 0.01 % ID/g; the “Liver … at 15 min” value amounted to 0.32 ± 0.01 % ID/g; the “Lung … at 15 min” value was determined as 0.39 ± 0.02 % ID/g; the “Muscle … at 15 min” value is 0.38 ± 0.04 % ID/g. Besides, the “Pancreas … at 15 min” value is on record as 0.23 ± 0.02 % ID/g; the “Spleen … at 15 min” value came out at 0.34 ± 0.01 % ID/g; the “Blood … at 60 min” value is recorded as 0.58 ± 0.04 % ID/g; the “Brain … at 60 min” value is reported as 0.43 ± 0.02 % ID/g. For the same compound, the “Femur … at 60 min” value is recorded as 0.40 ± 0.03 % ID/g; the “Heart … at 60 min” value amounted to 0.50 ± 0.03 % ID/g; the “Kidney … at 60 min” value was 0.42 ± 0.02 % ID/g; the “Liver … at 60 min” value is on record as 0.35 ± 0.02 % ID/g. Besides, the “Lung … at 60 min” value stood at 0.42 ± 0.02 % ID/g; the “Muscle … at 60 min” value was found to be 0.31 ± 0.02 % ID/g; the “Pancreas … at 60 min” value is reported as 0.23 ± 0.03 % ID/g; the “Spleen … at 60 min” value is given as 0.37 ± 0.02 % ID/g.
`CC(C)(C)n1ncc(OCc2ccc(C#CCCF)cc2)c(Cl)c1=O` [Example 67K]: the “Blood … at 15 min” value amounted to 0.07 ± 0.03 % ID/g; the “Brain … at 15 min” value turned out to be 0.36 ± 0.04 % ID/g; the “Femur … at 15 min” value stood at 0.27 ± 0.02 % ID/g; the “Heart … at 15 min” value was found to be 2.68 ± 0.35 % ID/g. In addition, the “Kidney … at 15 min” value stood at 1.35 ± 0.14 % ID/g; the “Liver … at 15 min” value was 0.99 ± 0.06 % ID/g; the “Lung … at 15 min” value amounted to 0.37 ± 0.15 % ID/g; the “Muscle … at 15 min” value amounted to 0.28 ± 0.02 % ID/g. For the same compound, the “Pancreas … at 15 min” value came to 0.55 ± 0.10 % ID/g; the “Spleen … at 15 min” value worked out at 0.31 ± 0.09 % ID/g; the “Blood … at 60 min” value stood at 0.03 ± 0.00 % ID/g; the “Brain … at 60 min” value was determined as 0.36 ± 0.03 % ID/g. The “Femur … at 60 min” value stood at 0.37 ± 0.05 % ID/g; the “Heart … at 60 min” value came out at 2.46 ± 0.27 % ID/g; the “Kidney … at 60 min” value came out at 0.83 ± 0.08 % ID/g; the “Liver … at 60 min” value is recorded as 0.83 ± 0.17 % ID/g. Besides, the “Lung … at 60 min” value was 0.15 ± 0.03 % ID/g; the “Muscle … at 60 min” value worked out at 0.39 ± 0.04 % ID/g; the “Pancreas … at 60 min” value was 0.38 ± 0.02 % ID/g; the “Spleen … at 60 min” value stood at 0.11 ± 0.02 % ID/g.
